These results are taken from patent US20250281509A1, “SEQUENTIAL HORMONE THERAPY TO IMPROVE SURVIVAL AND ENHANCE RESPONSE TO IMMUNE THERAPY IN MEN WITH PROSTATE CANCER” (The Johns Hopkins University, priority 2021, published 2025).

In series [1] the test system is advanced prostatic carcinoma. As to conditions: cited from earlier work.
In the next series the test system is LNCaP/A-xenografts. Description: LNCaP xenografts in castrated mice with testosterone implants. The format is in vivo. The text has this: FIG. 3A and FIG. 3B show castrated NOG mice inoculated with LNCaP/A-cells were either exposed to BAT therapy (via an implanted testosterone filled capsule that was placed and removed at two-week intervals) or left in a permanently castrate state (diamond versus box). (FIG. 3A) Evaluation of indicated parameters in LNCaP/A-cells growing in castrate mice vs. castrate mice supplemented with subcutaneous testosterone-filled silastic implants; (FIG. 3B) Immunohistochemical staining for AR in harvested LNCaP/A-xenografts growing in castrate vs. castrate+T-pelleted mice. Blue arrows indicate mitotic figures;
A mechanism for growth inhibition by testosterone in CRPC cells has been recently explored. Beer et al., 2014; Litvinov et al., 2006; Vander Griend et al., 2007. These studies document that the increase in AR expression observed in these cells in the low testosterone environment creates a unique therapeutic vulnerability to selectively kill CRPCs. This observation is based on the fact that AR is involved in DNA relicensing and DNA replication AR must degraded each cell cycle for proper relicensing to occur. Overstabilization of the increased levels of AR observed in CRPC with high dose testosterone prevents complete degradation of AR via the proteasome during mitosis. Beer et al., 2014; Litvinov et al., 2006; Vander Griend et al., 2007. […] Beer et al., 2014. […] In xenografts treated with high dose testosterone, however, the Cell Death Index was approximately 3-fold higher. Beer et al., 2014. More strikingly, the percent of cells staining positive for AR in mitosis was approximately 10-fold higher in cells exposed to high dose testosterone vs. castrate only animals, FIG. 3b.

Series [2] deals with CRPC. Kind of series: Post hoc analysis of PSA response to subsequent hormonal therapies post-BAT (pilot study). The format is in vivo, human. As to conditions: for patients with a PSA decline on second line therapy: after return to castrate testosterone levels post-BAT; for Maximum PSA decline upon secondary HT initiation (%): per subject, secondary HT received post-study after return to castrate T-levels post-BAT; for PSA decline upon re-challenge: subjects who had previously progressed on the same agent. On the procedure: As part of the aforementioned pilot study, a post hoc exploratory analysis on the effect of BAT on subsequent hormonal therapies was performed. […] All of the patients had received at least one anti-androgen prior to starting the study, Table 2. PSA response to secondary hormonal therapy after return to castrate T-levels post-BAT.

Series [3] relates to CRPC. Kind of series: Pilot study of BAT plus etoposide in men with CRPC. The format is in vivo, human. As for the experimental part:
Based on the preclinical results and potential mechanisms for growth inhibition that include androgen-induced double strand breaks and stabilization of AR preventing relicensing, a pilot study was conducted to evaluate the efficacy and safety of pharmacologic doses of testosterone to produce high dose testosterone levels in conjunction with oral etoposide in chronically castrated men with rising PSA and CRPC, FIG. 4A. Patients who had been continuously castrate for more than one year with minimal metastatic disease burden (≤5 total bone metastases and ≤10 total sites of metastases) and/or rising PSA were eligible, FIG. 4B. To achieve rapid cycling between high dose and near castrate serum testosterone (i.e., BAT) patients received intramuscular injection of 400 mg testosterone cypionate every 28 days. For the first 3 cycles of therapy patients received BAT plus oral etoposide 100 mg po/day days 1-14 of a 28-day cycle. After 3 cycles PSA response and objective response were assessed. Those patients with a PSA that was declining from peak levels and no objective evidence of disease progression or worsening pain were continued on therapy. Given the toxicity associated with etoposide and the lack of clinical response in an earlier trial, Hussain et al., 1994, patients who responding after 3 cycles of testosterone plus etoposide were continued on testosterone alone based on protocol amendment.

The test system of the next series is LNCaP. Description: Cell death, trypan blue exclusion assay. The format is cell-based, human. As to conditions: ferrostatin-1 in combination with R1881. As for the experimental part: Cells were stained with 0.4% trypan blue (Sigma) and incubated for 2-3 min at room temperature to allow dead cells to take up the blue stain. Cell viability was measured using an automated cell counter, Cellometer, (Nexcelom). Each experiment was repeated at least three times. Dead cells were calculated from subtracting the percentage of viable cells from 100. Mean percentage of dead cells was plotted on histograms.

Series [4] relates to CRPC. Kind of series: RESTORE Phase II study (NCT02090114). The format is in vivo, human. Particulars: re-challenge with the agent patients progressed on before BAT. An excerpt: The RESTORE study (NCT02090114) was an NIH sponsored Phase II study designed to assess the safety and efficacy of BAT in men (n=30 per cohort) with CRPC progressing on enzalutamide (Cohort A) or abiraterone (Cohort B), FIG. 6A. Shah et al., 2004. The primary endpoint of the first part of the study was to assess PSA response to BAT. Secondary endpoints included objective response, safety, and quality of life. The second part of the study was to determine in BAT could re-sensitize patients to repeat exposure to second line therapy that patients were progressing on prior to receiving BAT. Thus, patients progressing on enzalutamide were re-exposed to enzalutamide after BAT and similarly for abiraterone. Both arms of this study met the primary endpoint. PSA50 Response to BAT was 30% in patient's post-enzalutamide and 18% post-abiraterone, FIG. 6B. Shah et al., 2004. […] Overall duration of response to BAT and duration of response to re-exposure was longer in the post-enzalutamide vs. post-abiraterone cohort. The PSA50 response to re-exposure to enzalutamide was 71% vs. only 21% for patients re-exposed to abiraterone, FIG. 6B. Shah et al., 2004. A third cohort was later added (Cohort C) for men progressing on ADT alone. Overall, 90 men were treated on this study over a 4-year period (2014-2018).

Series [5] relates to metastatic castration-resistant prostate cancer. As to conditions: cited from earlier work.
In another series the test system is early CRPC. Particulars: cited from earlier work.
For series [6] the following is noted: cited from earlier work.
Series [7] concerns CRPC. Particulars: cited from earlier work.
The next series deals with mCPRC. As to conditions: 258 patients previously treated with docetaxel and one or more hormonal therapies; cited from earlier work.
The next series relates to ferritin. Description: Ferritin level by western blot. As to conditions: LNCaP cells, 10 μM with 10 nM R1881. The format is cell-based, human. On the procedure: Cell lysates were prepared either in 1× denaturing lysis buffer (Cell Signaling #9803) or non-denaturing lysis buffer (50 mM HEPES pH 7.4, 150 mM NaCl, 5 mM EDTA, 10% glycerol, 1% Nonidet P-40, and supplemented with phosphatase and protease inhibitors). For denaturing gels, lysates were mixed with Laemmli buffer containing β-mercaptoethanol, boiled for 5 mins and stored at −80° C. until use. Native lysates were mixed with native loading buffer (BioRad), and semi-native lysates were mixed with Laemmli buffer without beta-mercaptoethanol and stored at −80° C. without boiling. Native gels were resolved as described previously, Robitaille et al., 2016; denaturing and semi-native gels were resolved on 4-15% precast polyacrylamide gels (BioRad) followed by transfer to PVDF membrane. Membranes were blocked in 5% nonfat milk in wash buffer (Tris-buffered saline+0.1% Tween-20). After blocking, immunoblotting was performed with primary antibodies overnight at 4° C., followed by incubation with HRP-conjugated secondary antibodies for 1 h at room temperature. Blots were analyzed using the chemiluminescence method. Blots were developed using ECL Western blot detection reagent (GE Healthcare) for highly expressed proteins and Super Signal West Femto (Thermo Fisher) reagent for low expression proteins. Each experiment was repeated at least two to three times.

Values joined by “and” are separate entries in the source; they are usually repeats but may differ in a detail not shown here. Identical values can stand only once. Like-named read-outs stand apart in the source and are kept apart here.

With `C[C@]12CC[C@H]3[C@@H](CCC4=CC(=O)CC[C@@]43C)[C@@H]1CC[C@@H]2O` [testosterone], the “patients with subjective improvement” value in series [1] (long-term castrate group, testosterone for at least one month) was 4 of 5. Besides, in series [1] (longer course of testosterone), the “men with acid phosphatase decline” value is reported as 2/5. Moreover, in the series with LNCaP/A-xenografts (high dose testosterone vs castrate only), the “Cell Death Index, increase vs castrate” value was “approximately 3 fold”. The “percent of cells staining positive for AR in mitosis, increase vs castrate” value in the series with LNCaP/A-xenografts (high dose testosterone vs castrate only animals) is “approximately 10 fold”. Also, in the series on LNCaP/A-xenografts (testosterone implants, high dose serum T-levels vs castrate only), the xenograft growth entry is “significant growth inhibition”.
For `CC1(C)NC(=O)N(c2ccc([N+](=O)[O-])c(C(F)(F)F)c2)C1=O` [nilutamide], in the series with CRPC [2], the “patients with a PSA decline on second line therapy” value (“patients with a PSA decline” for short) was 1/1, the “Maximum PSA decline upon secondary HT initiation (%)” value is reported as −44.3% and the “PSA decline upon re-challenge” value is recorded as 44.3%.
Turning to `C[C@]12CC[C@H]3[C@@H](CCC4=CC(=O)CC[C@@]43C)[C@@H]1CC[C@@H]2OC(=O)CCC1CCCC1` [testosterone cypionate], in the series on CRPC [3] (400 mg IM every 28 days, oral etoposide in first 3 cycles), the “patients with a decline in PSA from baseline value” is given as “Seven of fourteen”. In the series on CRPC [3] (completing 3 months of therapy), the “patients developing new bone metastases” value is “None of the 14 patients”. In addition, the “median time to PSA progression” value with CRPC [3] (seven patients with PSA decline, range 95 to 454 days) is listed as 221 days. Moreover, in the series on CRPC [3] (ten evaluable subjects), the “complete response (CR)” value was determined as 10%; the “partial responses (PRs)” value was determined as 40%; the “progressive disease (PD), RECIST-evaluable soft tissue metastases” value is 20%. Also, in the series on CRPC [3] (ten evaluable subjects, median follow up 91 days), the stable disease is given as 30%.
Regarding `CCOC(=O)c1ccc(NC2CCCCC2)c(N)c1` [ferrostatin-1], in the series with LNCaP, the “SupraT induced cell death” value is given as “abrogated cell death”.
On to `CC(=O)O[C@H]1CC[C@@]2(C)C(=CC[C@@H]3[C@@H]2CC[C@]2(C)C(c4cccnc4)=CC[C@@H]32)C1` [abiraterone, abiraterone acetate], for which the “PSA50 response to re-exposure post-BAT” value with CRPC [4] was found to be 21%. Also, in the series on CRPC [2], the “patients with a PSA decline” value is on record as 4/4; the “Maximum PSA decline upon secondary HT initiation (%)” value was −94.2% and −92.7% and −88.1% and −63.8%. Also, the “patients with >50% PSA decline on second line therapy” value with CRPC [2] (post-BAT) was “Four of 4”. Besides, in [5] (AR-V7-negative patients), the “PFS (median), clinical/radiographic” value was “not reached”; the PSA response rate is 68.0%; the “PSA-PFS (median)” value is “not reached”. In series [5] (AR-V7-positive patients), the “PFS (median), clinical/radiographic” value was 2.3 months; the PSA response rate is reported as 0%; the “PSA-PFS (median)” value was 1.3 months.
As to `C[C@]12CC[C@H]3[C@@H](CCC4=CC(=O)CC[C@@]43C)[C@@H]1CC[C@@H]2O` [transdermal testosterone, testosterone], the “patients with a decrease in PSA” value in the series on early CRPC (15 men, 2.5-7.5 mg/day) was 20%. The “largest decrease in PSA” value in the series on early CRPC (in vivo) is listed as 43%. The toxicities result in the series with early CRPC (in vivo) is “no grade 3 or 4 toxicities were observed with the exception of one person who was taken off study at week 53 for grade 4 cardiac toxicity”; in the series with CRPC [7] (7.5 mg/day, 12 patients), “no grade 3 or 4 toxicities and no pain flares”. Also, the “median concentration of testosterone” value was 305 ng/dL in series [6] (2.5 mg/day transdermal), 308 ng/dL in series [6] (5.0 mg/day transdermal) and 297 ng/dL in [6] (7.5 mg/day transdermal). Further, the objective responses result in the series with CRPC [7] (7.5 mg/day) is “No objective responses”. Moreover, the “patients with >50% PSA decline” value in the series on CRPC [7] (of 12 patients) is “one”. In addition, the “patients with at least 20% PSA declines” value in the series on CRPC [7] (of 12 patients) was “Four”.
Turning to Pembrolizumab: anti-PD1/PDL1 antibody, in the series on mCPRC, the Objective response is reported as less than 5%.
On to `CCN(CCO)CCCC(C)Nc1ccnc2cc(Cl)ccc12` (centres unmarked) [hydroxychloroquine], for which the “degradation of ferritin by SupraT” value with ferritin is “prevented the degradation of ferritin by SupraT”.
Consider `CC(O)(CS(=O)(=O)c1ccc(F)cc1)C(=O)Nc1ccc(C#N)c(C(F)(F)F)c1` (centres unmarked) [bicalutamide], for which, in the series on CRPC [2], the “patients with a PSA decline” value is reported as 1/1, the “Maximum PSA decline upon secondary HT initiation (%)” value is reported as −30.8% and the “PSA decline upon re-challenge” value is 30.9%.
